Measured values from patent US11793885B2, “Substituted benzo[5,6][1,4]diazepino[1,2-a]indoles for the treatment of proliferative disorders” (priority 2017, dated 2023).
Read-outs that look alike come from different tables or passages of the source.

Assays:
[1] = test system: Namalwa (Burkitt's lymphoma); assay: in vitro cytotoxicity assay, Namalwa cells; format: cell-based, human; conditions: free cytotoxic compound
Source text: (§1) Following cell lines were used for the study: KB (cervical carcinoma, ATCC), NCI-H2110 (Non Small Cell Lung Carcinoma, ATCC), Namalwa (Burkitt's lymphoma, ATCC), Ishikawa (endometrial adenocarcinoma, ECACC), EOL-1 (Acute Myeloid Leukemia, ECACC), JEG-3 (choriocarcinoma, ATCC), JHOS-4 (ovarian adenocarcinoma, Riken Bioresource Center), OV-90 (ovarian adenocarcinoma, ATCC), SKOV-6 (ovarian adenocarcinoma, Memorial Sloan Kettering Cancer Center), Igrov-1 (ovarian adenocarcinoma, National Cancer Institute), KB-GRC1-MDR (cervical carcinoma/Pgp positive, gift from Dr. Roninson at the Ordway Research Institute) and T47D (breast epithelial cancer, ATCC). The cells were maintained and plated for the cytotox experiments in media recommended by the manufacturers. Cells were plated in the 96-well flat bottom plates at a seeding density of 800 cells per well (Ishikawa, JEG-3 or SK-OV-6), 1,000 cells per well (KB, Namalwa, EOL-1, OV-90 and Igrov-1) or 2,000 cell per well (NCI H2110, JHOS-4 and T47D). Conjugates or free drug compounds were diluted in RPMI-1640 (Life Technologies) supplemented with heat-inactivated 100 FBS (Life Technologies) and 0.1 mg/ml gentamycin (Life Technologies), and added to the plated cells. To determine specificity of cytotoxic activity of the conjugates an excess of unconjugated antibody was added to a separate set of diluted conjugates (+block samples, IC50 table). The plates were incubated at 37° C., 500 CO2 for either 4 days (JHOS-4 and T47D cells) or 5 days (KB, NCI H2110, Ishikawa, EOL-1, JEG-3, OV-90, SK-OV-6, NC-H441 and Igrov-1 cells). Alamar blue assay (Invitrogen) was used to determine viability of JHOS-4 and T47D cells, and WST-8 assay (Donjindo Molecular Technologies, Inc.) was applied for viability of KB, NCI H2110, Namalwa, Ishikawa, EOL-1, JEG-4, OV-90, SK-OV-6, NCI-H4441 and Igrov-1 cells. The assays were performed in accordance with the manufacturer's protocols. Killing curves and IC50 were generated using a sigmoidal dose-response nonlinear regression curve fit (GraphPad Software Inc.).

[2] = test system: NCI-H2110 (Non Small Cell Lung Carcinoma); assay: in vitro cytotoxicity assay, NCI-H2110 cells; format: cell-based; conditions: free cytotoxic compound, 5 days
Source text: as §1

KB (cervical carcinoma) = assay: in vitro cytotoxicity assay, KB cells; format: cell-based, human; conditions: free cytotoxic compound, 5 days
Source text: as §1

[3] = test system: Ishikawa (endometrial adenocarcinoma); assay: in vitro cytotoxicity assay, Ishikawa cells; format: cell-based; conditions: free cytotoxic compound, 5 days
Source text: as §1

[4] = test system: EOL-1 (Acute Myeloid Leukemia); assay: in vitro cytotoxicity assay, EOL-1 cells; format: cell-based; conditions: Homo sapiens, EOL1, 120 h; free cytotoxic compound; 5 days
Source text: as §1

[5] = test system: KB-GRC1-MDR (cervical carcinoma/Pgp positive); assay: cells; conditions: read-out: IC50 KB-MDR
Source text: Following cell lines were used for the study: KB (cervical carcinoma, ATCC), NCI-H2110 (Non Small Cell Lung Carcinoma, ATCC), Namalwa (Burkitt's lymphoma, ATCC), Ishikawa (endometrial adenocarcinoma, ECACC), EOL-1 (Acute Myeloid Leukemia, ECACC), JEG-3 (choriocarcinoma, ATCC), JHOS-4 (ovarian adenocarcinoma, Riken Bioresource Center), OV-90 (ovarian adenocarcinoma, ATCC), SKOV-6 (ovarian adenocarcinoma, Memorial Sloan Kettering Cancer Center), Igrov-1 (ovarian adenocarcinoma, National Cancer Institute), KB-GRC1-MDR (cervical carcinoma/Pgp positive, gift from Dr. Roninson at the Ordway Research Institute) and T47D (breast epithelial cancer, ATCC). The cells were maintained and plated for the cytotox experiments in media recommended by the manufacturers. Cells were plated in the 96-well flat bottom plates at a seeding density of 800 cells per well (Ishikawa, JEG-3 or SK-OV-6), 1,000 cells per well (KB, Namalwa, EOL-1, OV-90 and Igrov-1) or 2,000 cell per well (NCI H2110, JHOS-4 and T47D). […] To determine specificity of cytotoxic activity of the conjugates an excess of unconjugated antibody was added to a separate set of diluted conjugates (+block samples, IC50 table). The plates were incubated at 37° C., […] for either 4 days (JHOS-4 and T47D cells) or 5 days (KB, NCI H2110, Ishikawa, EOL-1, JEG-3, OV-90, SK-OV-6, NC-H441 and Igrov-1 cells). Alamar blue assay (Invitrogen) was used to determine viability of JHOS-4 and T47D cells, and WST-8 assay (Donjindo Molecular Technologies, Inc.) was applied for viability of KB, NCI H2110, Namalwa, Ishikawa, EOL-1, […], OV-90, SK-OV-6, […] and Igrov-1 cells. The assays were performed in accordance with the manufacturer's protocols. Killing curves and IC50 were generated using a sigmoidal dose-response nonlinear regression curve fit (GraphPad Software Inc.).

Row | Structure (SMILES) | IC50 ([1]; Homo sapiens) [nM] | IC50 ([2]; NCI-H2110, 120 h) [nM] | IC50 (KB (cervical carcinoma); Homo sapiens, KB, 120 h) [nM] | IC50 ([3]; Homo sapiens, Ishikawa, 120 h) [nM] | IC50 [4] [nM] | IC50 [2] [nM] | IC50 [1] [nM] | IC50 (KB (cervical carcinoma)) [nM] | IC50 [5] [nM] | IC50 [3] [nM] | IC50 ([5]; free cytotoxic compound) [nM]
1 | COC(=O)c1cc2cc(NC(=O)c3cc(NC(=O)CCCOc4cc5c(cc4OC)C(=O)N4c6ccccc6C[C@H]4C=N5)cn3C)ccc2s1 [Compound 7] | 0.02 | – | – | – | – | – | – | – | – | – | –
2 | COC(=O)CCNC(=O)c1cc2cc(NC(=O)c3cc(NC(=O)CCCOc4cc5c(cc4OC)C(=O)N4c6ccccc6C[C@H]4C=N5)cn3C)ccc2s1 [Compound 9] | 0.03 | 0.2 | 0.04 | 0.07 | 0.01 | – | – | – | – | – | –
3 | COc1cc2c(cc1OCCCC(=O)Nc1ccc(-c3cc(C(=O)NCC(C)(C)S)n(C)c3)cc1)NC(S(=O)(=O)O)[C@@H]1Cc3ccccc3N1C2=O (stereo partly drawn) [Compound 30] | 0.7 | – | – | – | 0.1 | – | – | – | – | – | –
4 | COc1cc2c(cc1OCc1cccc(CC(=O)Nc3cc(C(=O)Nc4ccc(-c5cc(C(=O)NCC(C)(C)S(C)=S)n(C)c5)cc4)n(C)c3)c1)N=C[C@@H]1Cc3ccccc3N1C2=O (stereo partly drawn) [Compound 55] | – | – | – | – | – | 2 | 4 | 9 | – | – | –
5 | COC(=O)c1cc2cc(NC(=O)c3cc(Nc4cccc(COc5cc6c(cc5OC)C(=O)N5c7ccccc7C[C@H]5C=N6)c4)cn3C)ccc2s1 [Compound 63] | 0.3 | 3 | 1 | 0.6 | – | – | – | – | > 5 | – | –
6 | COc1cc2c(cc1OCCCC(=O)Nc1nc(C)c(C(=O)Nc3ccc4sc(C(=O)NCC(C)(C)S(C)=S)cc4c3)s1)N=C[C@@H]1Cc3ccccc3N1C2=O (stereo partly drawn) [Compound 81] | – | – | – | – | – | > 5 | 3 | > 5 | – | > 5 | > 5
7 | COc1cc2c(cc1OCCCC(=O)Nc1cc(C(=O)Nc3ccc(-c4cc(C(=O)NCC(C)(C)SSC)n(C)c4)cc3)n(C)c1)N=C[C@@H]1Cc3ccccc3N1C2=O [Compound 85] | 0.03 | 0.1 | 0.01 | 0.1 | 0.008 | – | – | – | > 5 | – | –
8 | COc1cc2c(cc1OCCCC(=O)Nc1cn(C)c(C(=O)Nc3ccc4nc(C(=O)NCC(C)(C)S(C)=S)n(C)c4c3)n1)N=C[C@@H]1Cc3ccccc3N1C2=O (stereo partly drawn) [Compound 99] | – | – | – | – | – | 1 | 0.1 | 0.5 | – | 0.7 | –
9 | COc1cc2c(cc1OCCCC(=O)Nc1cn(C)c(C(=O)Nc3ccc(-c4cc(C(=O)NCC(C)(C)SSC)n(C)c4)cn3)n1)N=C[C@@H]1Cc3ccccc3N1C2=O [Compound 103] | 0.02 | 0.2 | 0.07 | 0.05 | – | – | – | – | 0.4 | – | –
10 | COc1cc2c(cc1OCCCC(=O)Nc1cn(C)c(C(=O)Nc3ccc(-c4csc(C(=O)NCC(C)(C)SSC)n4)cc3)n1)N=C[C@@H]1Cc3ccccc3N1C2=O [Compound 113] | 0.07 | 0.4 | 0.2 | 0.2 | – | – | – | – | 3 | – | –
11 | COc1cc2c(cc1OCCCC(=O)Nc1ccc(C(=O)Nc3cc(C(=O)NCC(C)(C)S(C)=S)n(C)c3)nc1)N=C[C@@H]1Cc3ccccc3N1C2=O (stereo partly drawn) [Compound 117] | – | – | – | – | – | 2 | 0.3 | 0.6 | – | 1 | > 5
12 | COc1cc2c(cc1OCCCC(=O)Nc1cn(C)c(C(=O)NCc3cccc(C(=O)NCC(C)(C)S(C)=S)c3)n1)N=C[C@@H]1Cc3ccccc3N1C2=O (stereo partly drawn) [Compound 121] | – | – | – | – | – | 2 | 0.6 | 2 | – | 2 | > 5
13 | COc1cc2c(cc1OCCCC(=O)Nc1cn(C)c(C(=O)Nc3ccc(-c4cc(C(=O)NCC(C)(C)SSC)n(C)c4)cc3)n1)N=C[C@@H]1Cc3ccccc3N1C2=O [Compound 125] | 0.01 | 0.06 | 0.04 | 0.05 | 0.004 | – | – | – | 0.9 | – | –
14 | COc1cc2c(cc1OCCCC(=O)Nc1cc(C(=O)Nc3cc(C(=O)NCC(C)(C)SSC)n(C)c3)n(C)c1)N=C[C@@H]1Cc3ccccc3N1C2=O [Compound 132] | 0.09 | 2 | 0.4 | – | 0.04 | – | – | – | – | – | –
15 | COc1cc2c(cc1OCCCC(=O)Nc1cn(C)c(C(=O)Nc3ccc4sccc4c3)n1)N=C[C@@H]1Cc3ccccc3N1C2=O [Compound 137] | 0.02 | 0.1 | 0.05 | – | 0.01 | – | – | – | – | – | –
16 | COC(=O)CCNC(=O)c1cc2cc(NC(=O)c3nc(NC(=O)CCCOc4cc5c(cc4OC)C(=O)N4c6ccccc6C[C@H]4C=N5)cn3C)ccc2s1 [Compound 142] | 0.01 | – | – | – | 0.006 | – | – | – | – | – | –
17 | COc1cc2c(cc1OCCCC(=O)Nc1cn(C)c(C(=O)Nc3ccc(N)cc3)n1)N=C[C@@H]1Cc3ccccc3N1C2=O [Compound 149] | 0.06 | 0.4 | 0.2 | 0.1 | – | – | – | – | – | – | –
18 | COc1cc2c(cc1OCCCC(=O)Nc1cn(C)c(C(=O)Nc3ccc4sc(C(=O)NCC(C)(C)SSC)cc4c3)n1)N=C[C@@H]1Cc3ccccc3N1C2=O [Compound 155] | 0.03 | – | – | – | 0.009 | – | – | – | – | – | –
19 | COC(=O)CCNC(=O)c1nc(NC(=O)c2cc3cc(NC(=O)CCCOc4cc5c(cc4OC)C(=O)N4c6ccccc6C[C@H]4C=N5)ccc3o2)cn1C [Compound 180] | 0.3 | 2 | 1 | – | – | – | – | – | – | – | –
20 | COC(=O)CCNC(=O)c1cc2cc(NC(=O)c3cc(NC(=O)CCCOc4cc5c(cc4OC)C(=O)N4c6ccccc6C[C@H]4C=N5)cn3C)ccc2o1 [Compound 185] | 0.2 | 0.5 | 0.2 | – | – | – | – | – | – | – | –
21 | COC(=O)CCNC(=O)c1cc2cc(NC(=O)c3nc(NC(=O)CCCOc4cc5c(cc4OC)C(=O)N4c6ccccc6C[C@H]4C=N5)cn3C)ccc2o1 [Compound 188] | 0.06 | 0.5 | 0.08 | – | 0.02 | – | – | – | – | – | –
22 | COc1cc2c(cc1OCCCCNC(=O)c1cc(NC(=O)c3cc(NC(=O)CCC(C)(C)SSC)cn3C)cn1C)N=C[C@@H]1Cc3ccccc3N1C2=O [Compound 192] | 0.4 | 2 | 0.9 | – | – | – | – | – | – | – | –
23 | COC(=O)CCNC(=O)c1cc2cc(NC(=O)c3cc(NC(=O)CCCOc4cc5c(cc4OC)C(=O)N4c6ccccc6C[C@H]4C=N5)cn3CCCNC(=O)OC(C)(C)C)ccc2o1 [Compound 199] | > 0.5 | 5 | 1 | – | – | 3 | – | – | – | – | –
24 | COc1cc2c(cc1OCCCC(=O)Nc1cccc(C(=O)Nc3cc(C(=O)NCC(C)(C)SSC)n(C)c3)n1)N=C[C@@H]1Cc3ccccc3CN1C2=O [Compound 205] | 0.1 | 0.8 | 0.4 | 0.3 | – | – | – | – | 4 | – | –
25 | COc1cc2c(cc1OCCCC(=O)Nc1cn(C)c(C(=O)Nc3ccc(-c4cc(C(=O)NCC(C)(C)SSC)n(C)c4)cc3)n1)N=C[C@@H]1Cc3ccccc3CN1C2=O [Compound 206] | 0.001 | 0.01 | 0.006 | 0.004 | – | – | – | – | 0.1 | – | –
26 | COC(=O)c1cc2cc(NC(=O)c3cc(NC(=O)NCCOc4cc5c(cc4OC)C(=O)N4c6ccccc6C[C@H]4C=N5)cn3C)ccc2s1 [Compound 214] | – | > 5 | > 5 | – | – | – | – | – | – | – | –
